Tested on: 889142-216-R-J1-PDC complex spheroid viability
Assay: Anticancer human tumor 889142-216-R-J1-PDC patient-derived bladder carcinoma cell line growth inhibition [POLQ]
Details: for IC50: curve of first compound; for viability, T/C: stronger effect = lower value
Method: Multicellular complex tumor spheroid response to Polymerase (POL) inhibitors (novobiocin, ART-558, RP6685) in combination with a variety of drugs and investigational agents in selected tumor cell lines
The POL inhibitors (novobiocin, ART-558, and RP6685) were evaluated both individually and in combination with standard of care and investigational anticancer small molecules within a complex spheroid model of solid tumors. . Complex spheroids include a stromal component modeled by human endothelial cells (HUVEC) and fibroblasts modeled by human mesenchymal stem cells (MSCs). The concentration ranges selected for each drug and investigational agent were based upon clinically achievable concentrations if the clinical Cmax of the agent was known.
Compounds. The drugs and investigational agents: novobiocin (NSC847541), ART-558 (NSC835418), RP-6685 (NSC848927), peposertib (NSC802822), ceralasertib (NSC780249), elimusertib (NSC800525), camonsertib (NSC841442), AZD-1390 (NSC803789), olaparib (NSC753686), talazoparib (NSC767125), rucaparib (NSC756644), sotorasib (NSC818433), MRTX-1133 (NSC836407), SN-38 (NSC673596), topotecan (NSC609699), epotoside (NSC141540), doxorubicin (NSC123127), gemcitabine (NSC613327), 5-fluorouracil (NSC19893), paclitaxel (NSC125973), vemurafenib (NSC761431), MSA-2 (NSC828583), SN-011 (NSC837082), adavosertib (NSC754352), prexasertib (NSC758257), carboplatin (NSC241240) and oxaliplatin (NSC266046), were obtained from the National Cancer Institute (NCI) Developmental Therapeutics Program Chemical Repository (21). The FDA-approved anticancer drug set is available from the Developmental Therapeutics Program at https://dtp.cancer.gov/organization/dscb/obtaining/. […] The stock solutions were prepared in dimethyl sulfoxide (DMSO, Sigma-Aldrich, St. Louis, MO, cat. D2650), except for the platinum compounds which were prepared in saline (Quality Biological, Gaithersburg, MD, cat. 114-055-101), at 800-fold the tested concentration and stored at -70 degrees C prior to their use. All drugs and investigational agents were tested over a range starting from a high concentration at or near the clinical Cmax and decreasing in half-log increments. If the clinical Cmax for an agent had not been determined, the highest concentration tested was 10 microM, except for SN-38, which was tested at a high concentration of 1 microM.
Cell Culture. All cells were maintained in an incubator at 37 degrees C and 5% CO2 with 95% humidity. The PDC lines were cultured according to standard operating procedures established by the NCI PDMR (https://pdmr.cancer.gov). Table 3 of the manuscript, lists the cell lines along with the number of the three cell types plated to form the mct-spheroids and media for tumor cell growth. After thawing, all PDC lines, except 997537-175-T-J1-PDC and 415267-285-R-J2-PDC, were cultured in Matrigel-coated flasks prepared with a working solution of 1X Ham's F-12 nutrient mix, without supplementation (Thermo Fisher Scientific, cat. 11765054), 100 U/mL penicillin-streptomycin (Thermo Fisher Scientific, cat. 15140122), and 2.5% Matrigel (Corning Inc., Corning, NY, cat. 354248) for the first three passages. The two PDC lines 997537-175-T-J1-PDC and 415267-285-R-J2-PDC were cultured on uncoated flasks. The 857933-349-R-J2-PDC line was cultured in 6C/Colon 1B media containing advanced DMEM/F-12 (Thermo Fisher Scientific, cat. 12634028), 10 mM HEPES (Thermo Fisher Scientific, cat. 15630080), 1X GlutaMAX supplement (Thermo Fisher Scientific, cat. 35050061), 0.1 mg/mL primocin (InvivoGen, San Diego, CA, cat. ant-pm-2), 10% defined fetal bovine serum, heat inactivated (HyClone Laboratories Inc., Logan, UT, cat. SH30070.03HI), 50% L-WRN conditioned media (ATCC, cat. CRL-3276), 1.25 mM N-Acetyl-L-cysteine (Sigma-Aldrich, cat. A9165), 10 mM nicotinamide (Sigma-Aldrich, cat. N0636), 1X B-27 supplement (Thermo Fisher Scientific, cat. 17504044), 1X N-2 supplement (Thermo Fisher Scientific, cat. […]

[1] = second compound 0.0316 µM, first compound 0.0316 µM
[2] = second compound 0.0316 µM, first compound 0.1 µM
[3] = second compound 0.0316 µM, first compound 0.316 µM
[4] = second compound 0.0316 µM, first compound 1 µM
[5] = second compound 0.0316 µM, first compound 3.16 µM
[6] = second compound 0.0316 µM, first compound 10 µM
[7] = second compound 0.1 µM, first compound 0.0316 µM
[8] = second compound 0.1 µM, first compound 0.1 µM
[9] = second compound 0.1 µM, first compound 0.316 µM
[10] = second compound 0.1 µM, first compound 1 µM
[11] = second compound 0.1 µM, first compound 3.16 µM
[12] = second compound 0.1 µM, first compound 10 µM
[13] = second compound 0.316 µM, first compound 0.0316 µM
[14] = second compound 0.316 µM, first compound 0.1 µM
[15] = second compound 0.316 µM, first compound 0.316 µM
[16] = second compound 0.316 µM, first compound 1 µM
[17] = second compound 0.316 µM, first compound 3.16 µM
[18] = second compound 0.316 µM, first compound 10 µM
[19] = second compound 1 µM, first compound 0.0316 µM
[20] = second compound 1 µM, first compound 0.1 µM
[21] = second compound 1 µM, first compound 0.316 µM
[22] = second compound 1 µM, first compound 1 µM
[23] = second compound 1 µM, first compound 3.16 µM
[24] = second compound 1 µM, first compound 10 µM
[25] = second compound 3.16 µM, first compound 0.0316 µM
[26] = second compound 3.16 µM, first compound 0.1 µM
[27] = second compound 3.16 µM, first compound 0.316 µM
[28] = second compound 3.16 µM, first compound 1 µM
[29] = second compound 3.16 µM, first compound 3.16 µM
[30] = second compound 3.16 µM, first compound 10 µM
[31] = second compound 10 µM, first compound 0.0316 µM
[32] = second compound 10 µM, first compound 0.1 µM
[33] = second compound 10 µM, first compound 0.316 µM
[34] = second compound 10 µM, first compound 1 µM
[35] = second compound 10 µM, first compound 3.16 µM
[36] = second compound 10 µM, first compound 10 µM
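Note: spheroids exposed to compounds for seven days.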
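Throughout, for viability, T/C: 100% = DMSO vehicle control viability.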

## CC1COCCN1c1cc(C2(S(C)(=N)=O)CC2)nc(-c2ccnc3[nH]ccc23)n1 (centres undefined) + COC1C(OC(N)=O)C(O)C(Oc2ccc3c(O)c(NC(=O)c4ccc(O)c(CC=C(C)C)c4)c(=O)oc3c2C)OC1(C)C
Second compound 0.0316 µM
  IC50: 1.93 µM
Second compound 0.1 µM
  IC50: 1.8 µM
Second compound 0.316 µM
  IC50: 0.996 µM
Second compound 1 µM
  IC50: 0.977 µM
Second compound 3.16 µM
  IC50: 1.96 µM
Second compound 10 µM
  IC50: 1.82 µM
[1]
  viability, T/C: 99%
[2]
  viability, T/C: 93.9%
[3]
  viability, T/C: 71.5%
[4]
  viability, T/C: 59.8%
[5]
  viability, T/C: 42.9%
[6]
  viability, T/C: 40.4%
[7]
  viability, T/C: 90.8%
[8]
  viability, T/C: 102%
[9]
  viability, T/C: 82.9%
[10]
  viability, T/C: 56.6%
[11]
  viability, T/C: 46.1%
[12]
  viability, T/C: 39.8%
[13]
  viability, T/C: 84.3%
[14]
  viability, T/C: 92.8%
[15]
  viability, T/C: 80.9%
[16]
  viability, T/C: 49.7%
[17]
  viability, T/C: 49.6%
[18]
  viability, T/C: 38.9%
[19]
  viability, T/C: 83.4%
[20]
  viability, T/C: 131%
[21]
  viability, T/C: 73.6%
[22]
  viability, T/C: 60.5%
[23]
  viability, T/C: 47.6%
[24]
  viability, T/C: 40.4%
[25]
  viability, T/C: 100%
[26]
  viability, T/C: 98%
[27]
  viability, T/C: 85.6%
[28]
  viability, T/C: 55.4%
[29]
  viability, T/C: 46.2%
[30]
  viability, T/C: 45.2%
[31]
  viability, T/C: 103%
[32]
  viability, T/C: 84.2%
[33]
  viability, T/C: 87.3%
[34]
  viability, T/C: 53%
[35]
  viability, T/C: 49.5%
[36]
  viability, T/C: 43.9%

## CCc1cc2c(N3CCc4c(cc(Cn5ccnc5)cc4-c4cn(C)nc4C(F)(F)F)C3=O)cc(C)nc2c(OC)n1 + COC1C(OC(N)=O)C(O)C(Oc2ccc3c(O)c(NC(=O)c4ccc(O)c(CC=C(C)C)c4)c(=O)oc3c2C)OC1(C)C
Second compound 0.0316 µM
  IC50: > 10 µM
Second compound 0.1 µM
  IC50: > 10 µM
Second compound 0.316 µM
  IC50: > 10 µM
Second compound 1 µM
  IC50: > 10 µM
Second compound 3.16 µM
  IC50: > 10 µM
Second compound 10 µM
  IC50: > 10 µM
[1]
  viability, T/C: 112%
[2]
  viability, T/C: 124%
[3]
  viability, T/C: 113%
[4]
  viability, T/C: 97%
[5]
  viability, T/C: 79.9%
[6]
  viability, T/C: 68.6%
[7]
  viability, T/C: 130%
[8]
  viability, T/C: 115%
[9]
  viability, T/C: 101%
[10]
  viability, T/C: 101%
[11]
  viability, T/C: 85.7%
[12]
  viability, T/C: 58.2%
[13]
  viability, T/C: 120%
[14]
  viability, T/C: 132%
[15]
  viability, T/C: 107%
[16]
  viability, T/C: 107%
[17]
  viability, T/C: 92.9%
[18]
  viability, T/C: 67.7%
[19]
  viability, T/C: 126%
[20]
  viability, T/C: 123%
[21]
  viability, T/C: 131%
[22]
  viability, T/C: 105%
[23]
  viability, T/C: 74.4%
[24]
  viability, T/C: 61.9%
[25]
  viability, T/C: 112%
[26]
  viability, T/C: 106%
[27]
  viability, T/C: 137%
[28]
  viability, T/C: 98.4%
[29]
  viability, T/C: 81.9%
[30]
  viability, T/C: 55.1%
[31]
  viability, T/C: 119%
[32]
  viability, T/C: 102%
[33]
  viability, T/C: 111%
[34]
  viability, T/C: 92.2%
[35]
  viability, T/C: 85.8%
[36]
  viability, T/C: 62.8%

— PubChem BioAssay AID1963831 (Molecular Pharmacology Branch, DTP, NCI, 2024)
